Data: patent US9815787B2, “Sulfonamide derivative or pharmaceutically acceptable acid addition salt thereof” (UNIVERSITY OF TSUKUBA, priority 2013, dated 2017)

Target: T1, OX2R (Homo sapiens, UniProt O43614)
T1 construct: expressed in transfected cells; host or cells: CHO (Chinese hamster ovary) cells constitutively expressing the OX2R gene and NFAT-luciferase (CHOOX2R)
T1 sequence (O43614 1-444): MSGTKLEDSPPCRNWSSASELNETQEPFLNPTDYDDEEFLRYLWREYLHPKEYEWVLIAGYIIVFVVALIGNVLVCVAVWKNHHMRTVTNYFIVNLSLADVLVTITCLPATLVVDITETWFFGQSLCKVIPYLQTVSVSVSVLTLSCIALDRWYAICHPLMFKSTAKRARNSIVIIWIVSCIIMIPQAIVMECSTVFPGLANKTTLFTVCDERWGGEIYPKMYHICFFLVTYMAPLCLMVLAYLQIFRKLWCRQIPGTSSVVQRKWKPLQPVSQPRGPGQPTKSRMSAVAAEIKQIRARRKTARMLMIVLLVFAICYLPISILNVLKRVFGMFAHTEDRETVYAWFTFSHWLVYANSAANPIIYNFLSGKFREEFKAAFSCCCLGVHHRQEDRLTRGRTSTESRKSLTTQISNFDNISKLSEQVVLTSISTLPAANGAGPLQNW
Assay: Evaluation of agonist activity against OX2R (CHOOX2R cells, Fura2AM fluorescence, FDSS3000)
Type: cell-based
Settings: relative to orexin-A as full agonist (100%), CHOOX2R cells; for Response (0.1 μM (%)): test compound 0.1 μM; for Response (1.0 μM (%)): test compound 1.0 μM; for Response (10 μM (%)): test compound 10 μM
Experimental: Evaluation of Agonist Activity Against OX2R
NFAT-luciferase gene and OX2R gene were each constitutively expressed in CHO cell, which is a cell line derived from Chinese hamster ovary to establish a cell line (CHOOX2R). The cells thereof were sown on a 96 well plate at 10000 cells/well, and cultured in a 5% FBS-added DMEM medium for 48 hr. […] After washing, HEPES buffer (75 μL) was added, a test compound solution (25 μL) was added, and changes in the fluorescence intensity were measured by FDSS3000 (Hamamatsu Photonics K.K.). The test compound was dissolved in DMSO (final concentration of DMSO was 1%), and diluted with HEPES buffer to a final concentration of 0.1 μM, 1.0 μM or 10 μM.

Row | Structure (SMILES) | Response (0.1 μM (%)) [%] | Response (1.0 μM (%)) [%] | Response (10 μM (%)) [%]
1 | COc1ccccc1C(=O)NCCNc1cccc(NS(=O)(=O)c2cc(-c3ccccc3F)ccc2OC)c1 [Example 1, N-(2-((3-(2′-fluoro-4-methoxy-[1,1′-biphenyl]-3-ylsulfonamide)phenyl)amino)ethyl)-2-methoxybenzamide] | <5 | 21 | 57
2 | COc1cccc(C(=O)NCCNc2cccc(NS(=O)(=O)c3cc(-c4ccccc4F)ccc3OC)c2)c1 [Example 2, N-(2-((3-(2′-fluoro-4-methoxy-[1,1′-biphenyl]-3-ylsulfonamide)phenyl)amino)ethyl)-3-methoxybenzamide] | <5 | 27 | 67
3 | COc1ccc(C(=O)NCCNc2cccc(NS(=O)(=O)c3cc(-c4ccccc4F)ccc3OC)c2)cc1 [Example 3, N-(2-((3-(2′-fluoro-4-methoxy-[1,1′-biphenyl]-3-ylsulfonamide)phenyl)amino)ethyl)-4-methoxybenzamide] | <5 | 11 | 50
4 | COc1ccc(Br)cc1C(=O)NCCNc1cccc(NS(=O)(=O)c2cc(-c3ccccc3F)ccc2OC)c1 [Example 4, 5-bromo-N-(2-((3-(2′-fluoro-4-methoxy-[1,1′-biphenyl]-3-ylsulfonamide)phenyl)amino)ethyl)-2-methoxybenzamide] | <5 | <5 | 17
5 | COc1ccc(N(C)C)cc1C(=O)NCCNc1cccc(NS(=O)(=O)c2cc(-c3ccccc3F)ccc2OC)c1 [Example 5, 5-(dimethylamino)-N-(2-((3-(2′-fluoro-4-methoxy-[1,1′-biphenyl]-3-ylsulfonamide)phenyl)amino)ethyl)-2-methoxybenzamide] | <5 | <5 | 23
6 | COc1ccc(-c2ccccc2F)cc1S(=O)(=O)Nc1cccc(NCCNC(=O)c2ccccc2O)c1 [Example 6, N-(2-((3-(2′-fluoro-4-methoxy-[1,1′-biphenyl]-3-ylsulfonamide)phenyl)amino)ethyl)-2-hydroxybenzamide] | <5 | <5 | 7
7 | COc1ccc(-c2ccccc2F)cc1S(=O)(=O)Nc1cccc(NCCNC(=O)c2ccccc2Cl)c1 [Example 7, 2-chloro-N-(2-((3-(2′-fluoro-4-methoxy-[1,1′-biphenyl]-3-ylsulfonamide)phenyl)amino)ethyl)benzamide] | 10 | 62 | 145
8 | COc1ccc(-c2ccccc2F)cc1S(=O)(=O)Nc1cccc(NCCNC(=O)c2cccc(Cl)c2)c1 [Example 8, 3-chloro-N-(2-((3-(2′-fluoro-4-methoxy-[1,1′-biphenyl]-3-ylsulfonamide)phenyl)amino)ethyl)benzamide] | <5 | 9 | 46
9 | COc1ccc(-c2ccccc2F)cc1S(=O)(=O)Nc1cccc(NCCNC(=O)c2ccc(Cl)cc2)c1 [Example 9, 4-chloro-N-(2-((3-(2′-fluoro-4-methoxy-[1,1′-biphenyl]-3-ylsulfonamide)phenyl)amino)ethyl)benzamide] | <5 | <5 | <5

Now from value to compound:

Row | Response (0.1 μM (%)) [%] | Response (1.0 μM (%)) [%] | Response (10 μM (%)) [%] | Structure (SMILES)
10 | <5 | <5 | 41 | COc1ccccc1C(=O)NCCNc1cccc(NS(=O)(=O)c2cc(-c3ccccc3Cl)ccc2OC)c1 [Example 10, N-(2-((3-(2′-chloro-4-methoxy-[1,1′-biphenyl]-3-ylsulfonamide)phenyl)amino)ethyl)-2-methoxybenzamide]
11 | <5 | 17 | 23 | COc1cccc(C(=O)NCCNc2cccc(NS(=O)(=O)c3cc(-c4ccccc4Cl)ccc3OC)c2)c1 [Example 11, N-(2-((3-(2′-chloro-4-methoxy-[1,1′-biphenyl]-3-ylsulfonamide)phenyl)amino)ethyl)-3-methoxybenzamide]
12 | <5 | 44 | 73 | COc1ccccc1C(=O)NCCNc1cccc(NS(=O)(=O)c2cc(-c3ccccc3OC)ccc2OC)c1 [Example 12, N-(2-((3-(2′,4-dimethoxy-[1,1′-biphenyl]-3-ylsulfonamide)phenyl)amino)ethyl)-2-methoxybenzamide]
13 | <5 | 64 | 99 | COc1cccc(C(=O)NCCNc2cccc(NS(=O)(=O)c3cc(-c4ccccc4OC)ccc3OC)c2)c1 [Example 13, N-(2-((3-(2′,4-dimethoxy-[1,1′-biphenyl]-3-ylsulfonamide)phenyl)amino)ethyl)-3-methoxybenzamide]
14 | <5 | <5 | 8 | COc1ccc(-c2ccccc2F)cc1S(=O)(=O)Nc1cccc(NCCNC(=O)c2ccccn2)c1 [Example 14, N-(2-((3-(2′-fluoro-4-methoxy-[1,1′-biphenyl]-3-ylsulfonamide)phenyl)amino)ethyl)picolinamide]
15 | <5 | <5 | 6 | COc1ccc(-c2ccccc2F)cc1S(=O)(=O)Nc1cccc(NCCNC(=O)c2cccnc2)c1 [Example 15, N-(2-((3-(2′-fluoro-4-methoxy-[1,1′-biphenyl]-3-ylsulfonamide)phenyl)amino)ethyl)nicotineamide]
16 | <5 | <5 | <5 | COc1ccc(-c2ccccc2F)cc1S(=O)(=O)Nc1cccc(NCCNC(=O)c2ccncc2)c1 [Example 16, N-(2-((3-(2′-fluoro-4-methoxy-[1,1′-biphenyl]-3-ylsulfonamide)phenyl)amino)ethyl)isonicotinamide]
17 | <5 | 18 | 182 | COc1ccccc1C(=O)NCCNc1cccc(NS(=O)(=O)c2cc(-c3c(F)cccc3F)ccc2OC)c1 [Example 17, N-(2-((3-(2′,6′-difluoro-4-methoxy-[1,1′-biphenyl]-3-ylsulfonamide)phenyl)amino)ethyl)-2-methoxybenzamide]
18 | <5 | 13 | 151 | COc1cccc(C(=O)NCCNc2cccc(NS(=O)(=O)c3cc(-c4c(F)cccc4F)ccc3OC)c2)c1 [Example 18, N-(2-((3-(2′,6′-difluoro-4-methoxy-[1,1′-biphenyl]-3-ylsulfonamide)phenyl)amino)ethyl)-3-methoxybenzamide]
19 | <5 | 8 | 143 | COc1ccccc1C(=O)NCCNc1cccc(NS(=O)(=O)c2cc(-c3cc(F)ccc3F)ccc2OC)c1 [Example 19, N-(2-((3-(2′,5′-difluoro-4-methoxy-[1,1′-biphenyl]-3-ylsulfonamide)phenyl)amino)ethyl)-2-methoxybenzamide]
20 | <5 | 13 | 180 | COc1cccc(C(=O)NCCNc2cccc(NS(=O)(=O)c3cc(-c4cc(F)ccc4F)ccc3OC)c2)c1 [Example 20, N-(2-((3-(2′,5′-difluoro-4-methoxy-[1,1′-biphenyl]-3-ylsulfonamide)phenyl)amino)ethyl)-3-methoxybenzamide]
21 | <5 | <5 | 11 | COc1cccc(C(=O)NCCNc2cccc(NS(=O)(=O)c3cc(-c4ccccc4C)ccc3OC)c2)c1 [Example 21, 3-methoxy-N-(2-((3-(4-methoxy-2′-methyl-[1,1′-biphenyl]-3-ylsulfonamide)phenyl)amino)ethyl)benzamide]
22 | <5 | 15 | 21 | COc1cccc(C(=O)NCCNc2cccc(NS(=O)(=O)c3cc(-c4ccccc4O)ccc3OC)c2)c1 [Example 22, N-(2-((3-(2′-hydroxy-4-methoxy-[1,1′-biphenyl]-3-ylsulfonamide)phenyl)amino)ethyl)-3-methoxybenzamide]
23 | <5 | <5 | <5 | COc1ccccc1C(=O)NCCNc1cccc(NS(=O)(=O)c2cc(-c3c(F)cccc3OC)ccc2OC)c1 [Example 23, N-(2-((3-(2′-fluoro-4,6′-dimethoxy-[1,1′-biphenyl]-3-ylsulfonamide)phenyl)amino)ethyl)-2-methoxybenzamide]
